Among the data in PubChem BioAssay AID330 (DTP/NCI, 2004) are T/C values, retold here.

The test system of this assay is P388 leukemia ip, CD2F1 mice, survival T/C. The assay is described as follows: NCI In Vivo Anticancer Drug Screen. Data for tumor model P388 Leukemia (intraperitoneal) in CD2F1 (CDF1) mice. To be noted: endpoint: median survival time, higher = longer survival. In short, it runs like this:
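Mice carrying the transplanted tumor received test compound or vehicle. Survival was recorded in each group, and the value is the treated-group measurement divided by that of the vehicle-treated control group.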

[1] abbreviates: dose: 12.5 mg/kg/injection, schedule: Q01DX009 (ip), vehicle: saline.
Setting [2] is: dose: 25.0 mg/kg/injection, schedule: Q01DX009 (ip), vehicle: saline.
Setting [3] is: dose: 50.0 mg/kg/injection, schedule: Q01DX009 (ip), vehicle: saline.
Where [4] appears, read: dose: 100.0 mg/kg/injection, schedule: Q01DX009 (ip), vehicle: saline.
The mark [5] stands for this setting: dose: 200.0 mg/kg/injection, schedule: Q01DX009 (ip), vehicle: saline.
Where [6] appears, read: dose: 60.0 mg/kg/injection, schedule: Q01DX005 (ip), vehicle: Klucel (hydroxypropylcellulose) (HPC).
Where [7] appears, read: dose: 120.0 mg/kg/injection, schedule: Q01DX005 (ip), vehicle: Klucel (hydroxypropylcellulose) (HPC).
[8] abbreviates: dose: 240.0 mg/kg/injection, schedule: Q01DX005 (ip), vehicle: Klucel (hydroxypropylcellulose) (HPC).
Setting [9] is: dose: 100.0 mg/kg/injection, schedule: Q04DX002 (ip), vehicle: Klucel (hydroxypropylcellulose) (HPC).
[10] abbreviates: dose: 200.0 mg/kg/injection, schedule: Q04DX002 (ip), vehicle: Klucel (hydroxypropylcellulose) (HPC).
Where [11] appears, read: dose: 400.0 mg/kg/injection, schedule: Q04DX002 (ip), vehicle: Klucel (hydroxypropylcellulose) (HPC).
Where [12] appears, read: dose: 50.0 mg/kg/injection, schedule: Q01DX005 (ip), vehicle: Klucel (hydroxypropylcellulose) (HPC).
The mark [13] stands for this setting: dose: 100.0 mg/kg/injection, schedule: Q01DX005 (ip), vehicle: Klucel (hydroxypropylcellulose) (HPC).
Where [14] appears, read: dose: 200.0 mg/kg/injection, schedule: Q01DX005 (ip), vehicle: Klucel (hydroxypropylcellulose) (HPC).
Where [15] appears, read: dose: 3.13 mg/kg/injection, schedule: Q01DX009 (ip), vehicle: Klucel (hydroxypropylcellulose) (HPC).
The mark [16] stands for this setting: dose: 6.25 mg/kg/injection, schedule: Q01DX009 (ip), vehicle: Klucel (hydroxypropylcellulose) (HPC).
Where [17] appears, read: dose: 25.0 mg/kg/injection, schedule: Q01DX009 (ip), vehicle: Klucel (hydroxypropylcellulose) (HPC).
The mark [18] stands for this setting: dose: 50.0 mg/kg/injection, schedule: Q01DX009 (ip), vehicle: Klucel (hydroxypropylcellulose) (HPC).

Values joined by “and” are separate entries in the source; they are usually repeats but may differ in a detail not shown here. Equal values may be shown once. Inconclusive results and toxic doses are left out.

Consider `O=S(=O)(O)c1c(O)ccc2nc3ccccc3nc12`, for which the T/C is, setting by setting: under setting [1], 99 % of control and 97 % of control; under setting [2], 98 % of control and 96 % of control; under setting [3], 103 % of control and 104 % of control and 106 % of control; under setting [4], 98 % of control; under setting [5], 96 % of control.
`O=C(O)c1c[nH]c2cc(OCc3ccccc3)ccc2c1=O`: the T/C under setting [3] was 99 % of control, the T/C under setting [4] is 98 % of control and the T/C under setting [5] is 103 % of control.
`Fc1cccc(Cl)c1C(Nc1ncccn1)Nc1ncccn1`: the T/C is, setting by setting: under setting [6], 100 % of control; under setting [7], 94 % of control; under setting [8], 88 % of control.
In the case of `CNC(=O)N(Cl)c1ccc(Cl)cc1`, the T/C runs as follows: under setting [3], 98 % of control; under setting [4], 96 % of control; under setting [5], 97 % of control.
As for `O=S1(=O)OC2(c3ccccc31)c1cc(Br)c(O)c(O)c1Oc1c2cc(Br)c(O)c1O`, the T/C under setting [1] was 105 % of control, the T/C under setting [2] is 103 % of control and the T/C under setting [3] was 88 % of control.
For the compound `O=c1ccc2cc3ccoc3c(OCCCCCCBr)c2o1`, the T/C is, setting by setting: under setting [9], 91 % of control; under setting [10], 99 % of control; under setting [11], 98 % of control.
As to `COc1cc2ccc1-c1cc(ccc1O)CC1c3cc4c(cc3CCN1C)Oc1c(OC)cc3c(c1O4)C(C2)N(C)CC3` (configuration not stated), the T/C is 99 % of control (dose: 7.5 mg/kg/injection, schedule: Q01DX005 (ip), vehicle: Klucel (hydroxypropylcellulose) (HPC)); 99 % of control (dose: 15.0 mg/kg/injection, schedule: Q01DX005 (ip), vehicle: Klucel (hydroxypropylcellulose) (HPC)); 92 % of control (dose: 30.0 mg/kg/injection, schedule: Q01DX005 (ip), vehicle: Klucel (hydroxypropylcellulose) (HPC)); 104 % of control under setting [6].
As for `CCCCN(CCO)CC(O)Cn1cnc2c(N)ncnc21` (configuration not stated), the T/C was 94 % of control under setting [6], 87 % of control under setting [7] and 87 % of control under setting [8].
For the compound `COc1ccc2c(c1OC)CN1CCc3cc4c(cc3C1C2)OCO4` (configuration not stated), the T/C was 105 % of control and 91 % of control under setting [12]; 100 % of control and 94 % of control under setting [13]; 96 % of control and 94 % of control under setting [14].
Regarding `Nc1nc(=S)c2[nH]c(-c3ccccc3)nc2[nH]1`, the T/C (dose: 12.5 mg/kg/injection, schedule: Q01DX005 (ip), vehicle: other) is 106 % of control; the T/C (dose: 25.0 mg/kg/injection, schedule: Q01DX005 (ip), vehicle: other) is 100 % of control; the T/C (dose: 50.0 mg/kg/injection, schedule: Q01DX005 (ip), vehicle: other) is 102 % of control; the T/C (dose: 100.0 mg/kg/injection, schedule: Q01DX005 (ip), vehicle: other) was 100 % of control.
For `COC(=O)c1ccccc1NC1OC(CO)C(O)C1O` (configuration not stated), the T/C by setting is: (dose: 60.0 mg/kg/injection, schedule: Q01DX005 (ip), vehicle: saline with Tween-80) 104 % of control; (dose: 120.0 mg/kg/injection, schedule: Q01DX005 (ip), vehicle: saline with Tween-80) 98 % of control; (dose: 240.0 mg/kg/injection, schedule: Q01DX005 (ip), vehicle: saline with Tween-80) 93 % of control.
For `CCOC(=O)CC1(O)Oc2cc3c(cc2C(c2cc(OC)c(OC)c(OC)c2)C1C(=O)OCC)OCO3` (configuration not stated), the T/C was 87 % of control under setting [6], 89 % of control under setting [7] and 88 % of control under setting [8].
In the case of `COC(=O)n1oc2c(Br)cc(Br)cc2c1=O`, the T/C runs as follows: under setting [9], 93 % of control; under setting [10], 101 % of control; under setting [11], 101 % of control.
As to `COc1ccc(C(=O)/C=C/c2ccc3cc(OC)c(OC)cc3c2)cc1OC`, the T/C reads like this: under setting [15], 103 % of control; under setting [16], 100 % of control; (dose: 12.5 mg/kg/injection, schedule: Q01DX009 (ip), vehicle: Klucel (hydroxypropylcellulose) (HPC)) 106 % of control; under setting [17], 106 % of control; under setting [18], 98 % of control.
As for `CC(NNC(=S)N1CCCCCC1)c1ccc2ccccc2n1` (configuration not stated), the T/C was 111 % of control under setting [12]; 110 % of control and 122 % of control and 95 % of control under setting [13]; 112 % of control and 113 % of control under setting [14].
In the case of `CCOC(=O)CC(=O)Nc1cc2ccc(OC)c(OC)c2cc1C(=O)OCC`, the T/C (dose: 25.0 mg/kg/injection, schedule: Q01DX009 (ip), vehicle: other) is 88 % of control; the T/C (dose: 50.0 mg/kg/injection, schedule: Q01DX009 (ip), vehicle: other) was 88 % of control; the T/C (dose: 100.0 mg/kg/injection, schedule: Q01DX009 (ip), vehicle: other) is 96 % of control; the T/C (dose: 200.0 mg/kg/injection, schedule: Q01DX009 (ip), vehicle: other) was 87 % of control; the T/C (dose: 400.0 mg/kg/injection, schedule: Q01DX009 (ip), vehicle: other) was 105 % of control.
On to `CCOC(=O)Nc1nc2ccccc2n1CN1CCN(Cn2c(NC(=O)OCC)nc3ccccc32)CC1`, for which the T/C reads like this: (dose: 25.0 mg/kg/injection, schedule: Q01DX005 (ip), vehicle: saline) 108 % of control; (dose: 50.0 mg/kg/injection, schedule: Q01DX005 (ip), vehicle: saline) 111 % of control; (dose: 100.0 mg/kg/injection, schedule: Q01DX005 (ip), vehicle: saline) 121 % of control; (dose: 200.0 mg/kg/injection, schedule: Q01DX005 (ip), vehicle: saline) 122 % of control.
For `Clc1ccc2nc(Cl)c3ccccc3c2c1`, the T/C reads like this: (dose: 0.78 mg/kg/injection, schedule: Q01DX009 (ip), vehicle: Klucel (hydroxypropylcellulose) (HPC)) 88 % of control and 93 % of control; (dose: 1.56 mg/kg/injection, schedule: Q01DX009 (ip), vehicle: Klucel (hydroxypropylcellulose) (HPC)) 87 % of control and 94 % of control; under setting [15], 94 % of control; under setting [16], 120 % of control and 89 % of control and 95 % of control; under setting [17], 89 % of control; under setting [18], 87 % of control.
As for `CC1(C)OC2OC(C3COC(=O)O3)C(O)C2O1` (configuration not stated), the T/C runs as follows: under setting [12], 95 % of control; under setting [13], 98 % of control; under setting [14], 101 % of control.
As for `CN=C(C)NC1CCCCC1`, the T/C under setting [3] was 96 % of control and the T/C under setting [4] is 96 % of control.
Turning to `Cc1ccc(NC2SC(=O)N(Cc3ccccc3)/C2=N/N=C2\C(Nc3ccc(C)cc3)SC(=O)N2Cc2ccccc2)cc1` (configuration not stated), the T/C under setting [9] was 97 % of control, the T/C under setting [10] is 97 % of control and the T/C under setting [11] was 97 % of control.
For `CCOC(=O)C(Cc1ccc(O)c(C#N)c1)NC(C)=O` (configuration not stated), the T/C runs as follows: (dose: 50.0 mg/kg/injection, schedule: Q01DX005 (ip), vehicle: saline with Tween-80) 97 % of control; (dose: 100.0 mg/kg/injection, schedule: Q01DX005 (ip), vehicle: saline with Tween-80) 97 % of control; (dose: 200.0 mg/kg/injection, schedule: Q01DX005 (ip), vehicle: saline with Tween-80) 95 % of control.
`CC1(C)NC(C(=O)O)Cc2c1[nH]c1ccccc21` (configuration not stated): the T/C under setting [2] is 102 % of control, the T/C under setting [3] was 91 % of control and the T/C under setting [4] was 94 % of control.
For `CCOC(=O)C(Cc1ccc(O)cc1)NCc1ccc(N(CCCl)CCCl)cc1` (configuration not stated), the T/C by setting is: (dose: 12.5 mg/kg/injection, schedule: Q01DX009 (ip), vehicle: saline with Tween-80) 109 % of control; (dose: 25.0 mg/kg/injection, schedule: Q01DX009 (ip), vehicle: saline with Tween-80) 113 % of control; (dose: 100.0 mg/kg/injection, schedule: Q01DX009 (ip), vehicle: saline with Tween-80) 160 % of control.
With `[CH3][Pb]([CH3])([CH3])[Cl]`, the T/C (dose: 0.75 mg/kg/injection, schedule: Q01DX009 (ip), vehicle: saline) was 90 % of control and 92 % of control; the T/C (dose: 1.5 mg/kg/injection, schedule: Q01DX009 (ip), vehicle: saline) is 90 % of control and 93 % of control and 97 % of control; the T/C (dose: 3.0 mg/kg/injection, schedule: Q01DX009 (ip), vehicle: saline) is 94 % of control (2×) and 97 % of control; the T/C (dose: 6.0 mg/kg/injection, schedule: Q01DX009 (ip), vehicle: saline) was 95 % of control.
